Reference: patent US20260199316A1, “SOLID DISPERSION, PREPARATION METHOD THEREFOR, AND USE THEREOF” (HANGZHOU GLUBIO PHARMACEUTICAL CO., LTD, priority 2022, published 2026)
≈ marks a conversion by molar mass, not a printed value.

Key:
Type in all cases: physicochemical
[1] = Four-week solid stability study of API+HPC SSL solid dispersions
Procedure: All solid dispersions with formulation of API+HPC SSL were stored at 25° C./60% RH (open) and 40° C./75% RH (sealed). After one week and four weeks (1 w and 4 w), the sample appearance was visually observed, the crystal form change was tested by XRPD, and the sample purity was analyzed by HPLC. The results are shown in Tables 11 to 12 and FIGS. 37 to 38.

[2] = One-week solid stability study of solid dispersions
Procedure: According to Table 6, three solid dispersions, namely, formulation of API+Soluplus, formulation of API+PVP VA64, and formulation of API+HPC SSL, were stored at 25° C./60% RH (open) and 40° C./75% RH (open) for one week, the appearance of the sample was visually observed and the purity of the samples was analyzed by HPLC.
Therefore, the storage of solid dispersions should avoid exposure to high temperature and high humidity conditions to prevent chemical degradation.

[3] = Solubility of rapid solvent evaporation products in FaSSIF
Procedure: About 10 mg of the API control of the compound of formula A and 40 mg of the polymer carrier were transferred to 1 mL of DCM:EtOH=9:1 (v/v) to prepare a solution with 20% drug loading. The resulting clear solution was rapidly evaporated at 80° C. until there was no liquid to prepare a solid dispersion. The API control of the compound of formula A was also treated separately in the same manner.

Structure (SMILES): O=C1CC[C@H](N2Cc3cc(C(=O)N[C@H](c4ccc(Cl)cn4)C4CCC4)ccc3C2=O)C(=O)N1 [API control, N—((S)-(5-chloropyridin-2-yl)(cyclobutyl)methyl)-2-((S)-2,6-dioxopiperidin-3-yl)-1-oxoisoindoline-5-carboxamide]
- Contents ([1]; 25° C./60% RH open, 1 w): 96.84%
- Impurities ([1]; 25° C./60% RH open, 1 w): 0.81%
- RRT 0.92 ([1]; 25° C./60% RH open, 1 w): 0.05%
- RRT 0.93 ([1]; 25° C./60% RH open, 1 w): 0.10%
- RRT 0.95 ([1]; 25° C./60% RH open, 1 w): 0.09%
- RRT 0.96 ([1]; 25° C./60% RH open, 1 w): 0.14%
- RRT 1.00 ([1]; 25° C./60% RH open, 1 w): 99.20%
- RRT 1.10 ([1]; 25° C./60% RH open, 1 w): 0.32%
- RRT 1.17 ([1]; 25° C./60% RH open, 1 w): 0.10%
- Contents ([1]; 25° C./60% RH open, 4 w): 101.1%
- Impurities ([1]; 25° C./60% RH open, 4 w): 0.70%
- RRT 0.92 ([1]; 25° C./60% RH open, 4 w): <LOQ
- RRT 0.93 ([1]; 25° C./60% RH open, 4 w): 0.07%
- RRT 0.95 ([1]; 25° C./60% RH open, 4 w): 0.09%
- RRT 0.96 ([1]; 25° C./60% RH open, 4 w): 0.14%
- RRT 1.00 ([1]; 25° C./60% RH open, 4 w): 99.30%
- RRT 1.10 ([1]; 25° C./60% RH open, 4 w): 0.32%
- RRT 1.17 ([1]; 25° C./60% RH open, 4 w): 0.09%
- Contents ([1]; 40° C./75% RH sealed, 1 w): 97.46%
- Impurities ([1]; 40° C./75% RH sealed, 1 w): 0.75%
- RRT 0.92 ([1]; 40° C./75% RH sealed, 1 w): 0.03%
- RRT 0.93 ([1]; 40° C./75% RH sealed, 1 w): 0.06%
- RRT 0.95 ([1]; 40° C./75% RH sealed, 1 w): 0.09%
- RRT 0.96 ([1]; 40° C./75% RH sealed, 1 w): 0.15%
- RRT 1.00 ([1]; 40° C./75% RH sealed, 1 w): 99.25%
- RRT 1.10 ([1]; 40° C./75% RH sealed, 1 w): 0.32%
- RRT 1.17 ([1]; 40° C./75% RH sealed, 1 w): 0.09%
- Contents ([1]; 40° C./75% RH sealed, 4 w): 101.2%
- Impurities ([1]; 40° C./75% RH sealed, 4 w): 0.70%
- RRT 0.92 ([1]; 40° C./75% RH sealed, 4 w): <LOQ
- RRT 0.93 ([1]; 40° C./75% RH sealed, 4 w): 0.06%
- RRT 0.95 ([1]; 40° C./75% RH sealed, 4 w): 0.09%
- RRT 0.96 ([1]; 40° C./75% RH sealed, 4 w): 0.14%
- RRT 1.00 ([1]; 40° C./75% RH sealed, 4 w): 99.30%
- RRT 1.10 ([1]; 40° C./75% RH sealed, 4 w): 0.33%
- RRT 1.17 ([1]; 40° C./75% RH sealed, 4 w): 0.09%
- Impurities ([1]; Initial): 0.78%
- RRT 0.92 ([1]; Initial): 0.05%
- RRT 0.93 ([1]; Initial): 0.10%
- RRT 0.95 ([1]; Initial): 0.09%
- RRT 0.96 ([1]; Initial): 0.15%
- RRT 1.00 ([1]; Initial): 99.22%
- RRT 1.10 ([1]; Initial): 0.31%
- RRT 1.17 ([1]; Initial): 0.09%
- Appearance ([2]; 25° C./60% RH open, one week): White powder
- Contents ([2]; 25° C./60% RH open, one week): 97.26%
- Impurities ([2]; 25° C./60% RH open, one week): 0.72%
- RRT 0.54 ([2]; 25° C./60% RH open, one week): 0.10%
- RRT 0.92 ([2]; 25° C./60% RH open, one week): <LOQ
- RRT 0.93 ([2]; 25° C./60% RH open, one week): 0.10%
- RRT 0.95 ([2]; 25° C./60% RH open, one week): 0.09%
- RRT 0.96 ([2]; 25° C./60% RH open, one week): 0.10%
- RRT 1.00 ([2]; 25° C./60% RH open, one week): 99.29%
- RRT 1.11 ([2]; 25° C./60% RH open, one week): 0.09%
- RRT 1.18 ([2]; 25° C./60% RH open, one week): 0.17%
- RRT 1.24 ([2]; 25° C./60% RH open, one week): 0.06%
- Appearance ([2]; 40° C./75% RH open, one week): Slight agglomeration
- Contents ([2]; 40° C./75% RH open, one week): 96.79%
- Impurities ([2]; 40° C./75% RH open, one week): 1.05%
- RRT 0.54 ([2]; 40° C./75% RH open, one week): 0.13%
- RRT 0.92 ([2]; 40° C./75% RH open, one week): 0.12%
- RRT 0.93 ([2]; 40° C./75% RH open, one week): 0.26%
- RRT 0.95 ([2]; 40° C./75% RH open, one week): 0.09%
- RRT 0.96 ([2]; 40° C./75% RH open, one week): 0.13%
- RRT 1.00 ([2]; 40° C./75% RH open, one week): 98.95%
- RRT 1.11 ([2]; 40° C./75% RH open, one week): 0.11%
- RRT 1.18 ([2]; 40° C./75% RH open, one week): 0.14%
- RRT 1.24 ([2]; 40° C./75% RH open, one week): 0.06%
- Appearance ([2]; Initial): White powder
- Impurities ([2]; Initial): 0.67%
- RRT 0.54 ([2]; Initial): 0.11%
- RRT 0.92 ([2]; Initial): <LOQ
- RRT 0.93 ([2]; Initial): 0.09%
- RRT 0.95 ([2]; Initial): 0.09%
- RRT 0.96 ([2]; Initial): 0.10%
- RRT 1.00 ([2]; Initial): 99.34%
- RRT 1.11 ([2]; Initial): 0.07%
- RRT 1.18 ([2]; Initial): 0.15%
- RRT 1.24 ([2]; Initial): 0.05%
- solubility ([3]; 0.25 h): 470 µg/mL (≈ 1010 µM)
- solubility ([3]; 0.5 h): 460 µg/mL (≈ 985 µM)
- solubility ([3]; 0.75 h): 490 µg/mL (≈ 1050 µM)
- solubility ([3]; 1 h): 510 µg/mL (≈ 1090 µM)
- solubility ([3]; 2 h): 440 µg/mL (≈ 942 µM)
